Assay results from the METLIN SMRT retention time set (Domingo-Almenara et al. 2019).

Experiment: gradient 5% acetonitrile 3 min, to 50% in 2 min, to 85% in 15 min, held 3 min, 100 µL/min
Details: column: Zorbax Extend-C18 2.1 x 50 mm; eluents: water / acetonitrile, 0.1% formic acid
How it was run: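 Standards, all pure, were combined into mixtures of ~100 molecules and run at 100 μL/min on a Zorbax Extend-C18 column (2.1 × 50 mm, 1.8 μm) with water and acetonitrile, each containing 0.1% formic acid. A coupled quadrupole time-of-flight mass spectrometer operated in positive and negative ionization mode. Retention time values come from computationally picked adduct peaks, each inspected manually.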

SMILES	RP-LC retention time [s]
Cc1nc(-c2noc(-c3ccncc3)n2)cn1CC(=O)NCc1cccs1	640
CCOC(=O)c1sc(N2CCN(c3ccccc3)CC2)nc1N	931
CC(C)CN1CCN(C(=O)c2ccc3[nH]c4c(c3c2)CN(C(=O)C2CCC2)CC4)CC1	621
CC1=C(c2ccc(F)cc2)S(=O)(=O)N=C1N1CCC(C(=O)NC2CCCC2)CC1	798
CN1c2ccc(F)cc2C(=O)NC12CCN(C(=O)Cc1ccccc1Cl)CC2	774
CCOc1ccc(NC(=O)Cn2nc(N3CCSCC3)c3ccccc3c2=O)cc1	929
COc1ccc(-c2n[nH]c3c2C(c2cccc(O)c2)NC3=O)cc1 (stereo not drawn)	654
Cc1cccc(NC(=O)Cn2ccc3sccc3c2=O)c1	701
Cc1ccc(NC(=O)c2cn(-c3cc(N(C)C)ncn3)cn2)cc1F	884
Cc1cc(Br)ccc1NC(=O)C1CCN(C(=O)c2cccn2-c2cccnc2)CC1	763
Cc1ccc(NC(=O)N2C[C@H](c3nc(-c4cccnc4)no3)[C@@H](C)C2)cc1	820
CCCCOc1ccc(CNC(=O)C2CCN(Cc3cn(C)c4ccc(OC)cc34)CC2)cc1	804
OCCOCCNCc1ccc(-c2ccc(F)cc2)o1	620
c1ccc(-c2ccc(CNCC3CCCO3)o2)cc1 (stereo not drawn)	642
Cc1sc(C)c(S(=O)(=O)NCc2ccccc2Cl)c1-c1cc(C(F)(F)F)on1	653
CCc1ccc(-c2csc(NC3OC(=O)c4ccccc43)n2)cc1 (stereo not drawn)	833
CC(C)NC(=O)c1ccc(Nc2c(-c3ccccc3)nc3cnccn23)cc1	702
O=C1COc2ccccc2N1Cc1nc(-c2ccc(F)c(Br)c2)no1	1120
COc1cc([C@H]2Oc3cc([C@@H]4Oc5cc(O)cc(O)c5C(=O)[C@@H]4O)ccc3O[C@@H]2CO)ccc1O	754
COc1ccc(S(=O)(=O)N2CCC(c3noc(-c4cccc(F)c4)n3)CC2)cc1	1100
Cc1ccc(C(=O)Nc2cnc(N3CCCCCC3)nc2)s1	910
COc1cc(-c2noc(Cn3nc(-c4ccc(Br)cc4)ccc3=O)n2)cc(OC)c1OC	1020

SMILES	RP-LC retention time [s]
Cc1ccccc1C(=O)N1CCN(S(=O)(=O)c2cc3c4c(c2)CCC(=O)N4CCC3)CC1	785
O=C(CCc1csc(NC(=O)c2cccs2)n1)Nc1ccc(F)c(Cl)c1	869
O=C(NCCCN1CCCCC1)c1cc2n(n1)CCCN(Cc1ccc(Cl)cc1)C2=O	582
O=C(NCc1cc(F)ccc1F)C1CCN(c2cncnc2N2CCCC2)CC1	653
O=C(N1CCC(Cc2nc(C3CCOCC3)no2)CC1)C1(c2ccccc2)CC1	817
O=C(C1=CN(c2ccc(Cl)cc2)c2cc(F)ccc2S1(=O)=O)N1CCCC1	858
CCCSCCCNc1nc(-c2nnc(-c3ccccc3)o2)nc2ccccc12	1100
CCCN1C(=O)COc2ccc(-c3noc(CNS(=O)(=O)c4ccccc4)n3)cc21	888
O=C(C1CCN(S(=O)(=O)c2ccc(-c3ccn[nH]3)o2)CC1)N1CCN(c2ccccn2)CC1	594
COc1ccc(Cl)cc1NC(=O)NCCC1CCN(S(=O)(=O)c2ccc(F)cc2)CC1	1030
Cc1nn(C)c(C)c1S(=O)(=O)N1[C@H]2CC[C@@H]1c1cnc(-c3ccccc3)nc1C2	865
OC(CNCC(O)C1CCc2cc(F)ccc2O1)C1CCc2cc(F)ccc2O1 (stereo not drawn)	744
COC(=O)c1cccc(-c2nc(-c3cn(Cc4ccccc4)nn3)no2)c1	964
CCNC(=O)C1CCc2sc(C(=O)N(CC)CC)cc2C1 (stereo not drawn)	660
Fc1ccc(-c2nnc(Cc3nc(-c4ccc(C(F)(F)F)cc4)no3)o2)cc1	1100
O=C(Nc1ccc2c(c1)OCCO2)N1CCc2nc(-c3ccccc3)ncc2C1	848
O=C1CCSc2ccc(S(=O)(=O)N3CCN(c4ccccn4)CC3)cc2N1	612
Cc1oc(-c2[nH]ncc2C(=O)N2CCCC2)cc1S(=O)(=O)NCc1cc(F)ccc1F	700
CCCNC(=O)N(C1CCOCC1)C1CCN(S(=O)(=O)c2ccccc2CC)CC1	899
O=S(=O)(c1cccc(Cl)c1)N1CCN(c2cnn3cnnc3c2)CC1	703
COc1ccccc1OCCNC(=O)c1ccc2c(=O)n(-c3ccccc3)c(N3CCCC3)nc2c1	834
CCc1ccc(S(=O)(=O)N2CCn3c(nnc3C3CCN(C(C)C)C3)C2)cc1 (stereo not drawn)	571

SMILES	RP-LC retention time [s]
CN(C)c1ccc(C(CNC(=O)C(=O)Nc2ccc(F)c(Cl)c2)N2CCCC2)cc1 (stereo not drawn)	613
COc1ccc(-c2nnc(-c3cccc(S(=O)(=O)N4CCCCC4)c3)o2)cc1OC	991
CNC(=O)c1ccc(-n2cccc2)nc1	645
CCCNC(=O)CN1CCN(C(=O)c2sc3ncccc3c2-n2cccc2)CC1	620
c1ccc(-c2ccc(CNCCc3c[nH]c4ccccc34)o2)cc1	735
C[C@@H]1C(=O)O[C@H]2C[C@@]34C5C[C@@H](C(C)(C)C)[C@]36[C@H](OC(=O)[C@@H]6O)OC4(C(=O)O5)[C@]21O (stereo partly drawn)	709
CCc1c(C)nc2ncnn2c1N1CCCC1	733
COc1ccc(-c2csc(NC(=O)CCCc3nc(-c4ccccc4Cl)no3)n2)cc1	1080
O=C1NCCCCCCN(C(=O)c2ccsc2)[C@H]2CCCC[C@@H]12	786
O=C(c1cc2c(s1)CCC(C(=O)N1CCN(c3ccccn3)CC1)C2)N1CCCCC1 (stereo not drawn)	621
COc1ccc(CCNC(=O)N2CCC(c3nnc(C(F)(F)F)o3)CC2)cc1	764
Cc1cc2[nH]c(C(=O)NCc3ccc(F)cc3)c(CN3CCOCC3)c2s1	689
COc1cccc(CNC(=O)C2(C)CCCN(C(=O)Nc3cc(C)ccc3C)C2)c1 (stereo not drawn)	939
COc1ccccc1CC(=O)N1C[C@@H]2C[C@H]1C[C@@H]2NC(=O)c1ccccc1	729
CCCCCNC(=O)C1CC(=O)N(CCc2c[nH]c3ccc(Cl)cc23)C1 (stereo not drawn)	740
Cc1cccc(CS(=O)(=O)N2CC(c3nc(Cc4ccccc4)no3)C2)c1	977
CC(=O)c1cccc(NC(=O)COc2ccc(C(C)(C)C)cc2)c1	1010
Cn1cc(S(=O)(=O)N2CCC(C(=O)NC3CCCCC3)CC2)cc1C(=O)N1CCCC1	736
Cc1cccc(NC(=O)N2CCC(CN3CCCC(C)C3)CC2)c1C (stereo not drawn)	620
COc1ccc(C(=O)NC2CCN(c3cc(-c4cccs4)[nH]n3)C2)cc1OC (stereo not drawn)	638
Cc1nnc2cc(N3CCN(S(=O)(=O)c4ccc(C(C)(C)C)cc4)CC3)cnn12	824
O=C(NCCc1ccncc1)C1CN(C(=O)c2cccs2)CC12CCCCC2 (stereo not drawn)	610

SMILES	RP-LC retention time [s]
Cc1ccc(-n2ccc(=O)c(-c3nc(-c4ccc(Cl)c(F)c4)no3)n2)cc1	1050
O=C(Nc1cccc2cccnc12)C1CCN(c2ccc(-n3cccn3)nn2)CC1	745
C=CCNC(=O)c1snc(C(=O)NC(C)C)c1N	749
Cc1ccc(-c2nnc(N3CCC(C(=O)NCCC(C)C)CC3)o2)cc1	881
N#Cc1cccc(C(=O)N2CCC(c3cc(N)on3)CC2)c1	641
COC(=O)N1CCc2ccc(Br)cc2C1C(=O)Nc1ccon1 (stereo not drawn)	785
COCCN1C(=O)c2ccccc2C(C(=O)NCCCN2CCCCC2)C1c1cccs1 (stereo not drawn)	612
Nc1nc(N2CCN(c3ccccn3)CC2)ncc1C(=O)NCc1ccccc1	592
O=c1n(Cc2ccc(Cl)cc2)nc2c(S(=O)(=O)N3CCCCC3)cccn12	919
C/C=C1/CN2CC[C@]34C(=C(C=O)[C@H]1C[C@H]23)Nc1ccccc14	606
CCn1nc(C(=O)Nc2nc3c(SC)cccc3s2)cc1C	994
CCOC(=O)CNC(=O)Nc1cccc(-c2nnc(Cc3ccc(C)cc3)o2)c1	867
CCOc1ccc2c(n1)CCN(C(=O)Nc1ccccc1OCC)C2	973
Cc1ccnc(Nc2ccc(NCCNS(=O)(=O)Cc3ccccc3)nn2)c1	570
C=C[C@H]1CN2CC[C@H]1C[C@@H]2[C@@H](O)c1ccnc2ccc(OC)cc12	616
CCCS(=O)(=O)N1CCc2nc(N3CCN(C)CC3)sc2C1	764
CCOC(=O)c1[nH]c(C)c(CCC(=O)NCCN2CCCCCC2)c1C	616
O=C(Nc1ccc(F)cc1F)N1CCc2nc(-c3ccc(F)cc3)ncc2C1	932
COc1cccc(N2CC(C(=O)Nc3nnc(-c4csc(C)n4)o3)CC2=O)c1 (stereo not drawn)	817
C=CCN1C(=O)COc2ccc(-c3csc(NC(=O)c4ccc(F)cc4)n3)cc21	1010
COc1ccccc1-c1noc(Cn2ncn3nc(-c4cccs4)cc3c2=O)n1	948
CC(C)c1nccn1C1CN(C(=O)COc2ccccc2)C1	596
